The source of these data is patent US12139499B2, “Heteroaryl compounds for treating Huntington's disease” (PTC THERAPEUTICS, INC., priority 2018, dated 2024).

The test system of this assay is Endogenous Huntingtin Protein. The assay is described as follows: Endogenous Huntingtin Protein Assay (ELISA-based MSD electrochemiluminescence). It is filed as cell-based. Conditions: Table 1. The method in brief: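 Sandwich MSD electrochemiluminescence immunoassay. Capture used MW1 (expanded polyglutamine) or MAB2166 antibody coated at 1 μg/mL overnight at 4 °C. Samples were bound overnight at 4 °C, then a rabbit monoclonal detection antibody and SULFO-TAG anti-rabbit, each at 0.25 μg/mL, were applied for 1 h at room temperature.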
In general terms: In an ELISA, binding on a coated surface is turned into a signal by an enzyme label.
Take `Cc1cn2cc(-c3cc(F)c4nc(C5=CCNCC5)sc4c3)cc(C)c2n1` [Compound 71, 6-(2,8-dimethylimidazo[1,2-a]pyridin-6-yl)-4-fluoro-2-(1,2,3,6-tetrahydropyridin-4-yl)-1,3-benzothiazole]: the IC50 (as a rule, the concentration at which inhibition is half-maximal) lay in the range of 100 to 500 nM.

`Cc1cn2cc(-c3cc4sc(N(C)C5CC6(C)CCC(C)(C5)N6)nc4cn3)nc2c(C)n1` [Compound 322, N-[(1R,3s,5S)-1,5-dimethyl-8-azabicyclo[3.2.1]octan-3-yl]-6-(6,8-dimethylimidazo[1,2-a]pyrazin-2-yl)-N-methyl[1,3]thiazolo[4,5-c]pyridin-2-amine]: the IC50 is no more than 100 nM. For the compound `Cc1cn2cc(-c3cc4sc(C5CCNCC5)nc4cn3)ccc2n1` [Compound 77, 6-(2-methylimidazo[1,2-a]pyridin-6-yl)-2-(piperidin-4-yl)[1,3]thiazolo[4,5-c]pyridine], the concentration for half-maximal inhibition (IC50) was in the range of 100 to 500 nM.

As to `CC1CC(N(C)c2nc3cnc(-c4cc(C#N)c5nn(C)cc5c4)cc3s2)CCN1C` (stereo not drawn) [Compound 377, 5-{2-[(1,2-dimethylpiperidin-4-yl)(methyl)amino][1,3]thiazolo[4,5-c]pyridin-6-yl}-2-methyl-2H-indazole-7-carbonitrile], the IC50 lay within 100 to 500 nM.

Compound `Cc1cn2cc(-c3cc4sc(NC5CC(C)(C)N(C)C(C)(C)C5)nc4cn3)cc(F)c2n1` [Compound 267, 6-(8-fluoro-2-methylimidazo[1,2-a]pyridin-6-yl)-N-(1,2,2,6,6-pentamethylpiperidin-4-yl)[1,3]thiazolo[4,5-c]pyridin-2-amine] came in with a concentration for half-maximal inhibition (IC50) of 100 to 500 nM.

For `Cc1cn2cc(-c3cc(F)c4nc(C5CCNCC5)sc4c3)nc2c(C)n1` [Compound 229, 2-[4-fluoro-2-(piperidin-4-yl)-1,3-benzothiazol-6-yl]-6,8-dimethylimidazo[1,2-a]pyrazine], the IC50 is no more than 100 nM.

Turning to `Cc1cn2nc(-c3cc(F)c4nc(C5CCNCC5)sc4c3)cc(N(C)C)c2n1` [Compound 168, 6-[4-fluoro-2-(piperidin-4-yl)-1,3-benzothiazol-6-yl]-N,N,2-trimethylimidazo[1,2-b]pyridazin-8-amine], the half-maximal inhibitory concentration (IC50) was no more than 100 nM. `CN(c1nc2nnc(-c3ccc(-n4ccnc4)cc3O)cc2s1)C1CCNCC1` [Compound 327, 5-(1H-imidazol-1-yl)-2-{6-[methyl(piperidin-4-yl)amino][1,3]thiazolo[4,5-c]pyridazin-3-yl}phenol]: the concentration for half-maximal inhibition (IC50) is 100 to 500 nM. `CCc1cc(-c2ccc3nc(C4CCNCC4)sc3c2)cc2cn(C)nc12` [Compound 85, 6-(7-ethyl-2-methyl-2H-indazol-5-yl)-2-(piperidin-4-yl)-1,3-benzothiazole]: the 50% inhibitory concentration (IC50) was 100 to 500 nM. With `Cc1cn2nc(-c3cc(F)c4nc(N(C)C5CCN[C@@H](C)C5)sc4c3)ccc2n1` (stereo partly drawn) [Compound 164, 4-fluoro-N-methyl-6-(2-methylimidazo[1,2-b]pyridazin-6-yl)-N-[(2S)-2-methylpiperidin-4-yl]-1,3-benzothiazol-2-amine], the IC50 was no more than 100 nM. `CN1CCC(Nc2nc3nnc(-c4ccc(-c5cn[nH]c5)cc4O)cc3s2)C1` (stereo not drawn) [Compound 373, 2-{6-[(1-methylpyrrolidin-3-yl)amino][1,3]thiazolo[4,5-c]pyridazin-3-yl}-5-(1H-pyrazol-4-yl)phenol] gave an IC50 of no more than 100 nM.

For the compound `Cc1cn2cc(-c3ncc4nc(N(C)C5C6CCC5CNC6)sc4n3)cc(C#N)c2n1` (stereo not drawn) [Compound 228, 6-{2-[(8-anti)-3-azabicyclo[3.2.1]oct-8-yl(methyl)amino][1,3]thiazolo[5,4-d]pyrimidin-5-yl}-2-methylimidazo[1,2-a]pyridine-8-carbonitrile], the half-maximal inhibitory concentration (IC50) lay within 500 to 1000 nM. The compound `COc1cc(-c2cc(C)c3nn(C)cc3c2)cc2sc(C3=CCNCC3)nc12` [Compound 98, 6-(2,7-dimethyl-2H-indazol-5-yl)-4-methoxy-2-(1,2,3,6-tetrahydropyridin-4-yl)-1,3-benzothiazole] registered a half-inhibitory concentration (IC50) of 100 to 500 nM. In the case of `Cc1cn2nc(-c3cc(F)c4nc(N5CC(C)NC(C)C5)sc4c3)cc(C)c2n1` (stereo not drawn) [Compound 132, 6-[2-(3,5-dimethylpiperazin-1-yl)-4-fluoro-1,3-benzothiazol-6-yl]-2,8-dimethylimidazo[1,2-b]pyridazine], the IC50 was no more than 100 nM. Regarding `Cc1cn2nc(-c3cc4sc(N(C)C5CC(C)(C)NC(C)(C)C5)nc4cn3)cc(C)c2n1` [Compound 90, 6-(2,8-dimethylimidazo[1,2-b]pyridazin-6-yl)-N-methyl-N-(2,2,6,6-tetramethylpiperidin-4-yl)[1,3]thiazolo[4,5-c]pyridin-2-amine], the 50% inhibitory concentration (IC50) was in the range of 100 to 500 nM.

Compound `CN(c1nc2cnc(-c3cc(C#N)c4nn(C)cc4c3)cc2s1)[C@@H]1C[C@H]2CC[C@@H](C1)N2C` [Compound 238, 2-methyl-5-(2-{methyl[(3-exo)-8-methyl-8-azabicyclo[3.2.1]oct-3-yl]amino}[1,3]thiazolo[4,5-c]pyridin-6-yl)-2H-indazole-7-carbonitrile] showed an IC50 of no more than 100 nM. `CN(c1nc2cnc(-c3cc(F)c4nn(C)cc4c3)nc2s1)C1CC2(C)CC[C@](C)(C1)N2` (stereo partly drawn) [Compound 289, N-[(1R)-1,5-dimethyl-8-azabicyclo[3.2.1]octan-3-yl]-5-(7-fluoro-2-methyl-2H-indazol-5-yl)-N-methyl[1,3]thiazolo[5,4-d]pyrimidin-2-amine] showed a 50% inhibitory concentration (IC50) of no more than 100 nM. `CN(c1nc2c(F)cc(-c3ccc4nn(C)cc4c3)cc2s1)C1CC(C)(C)NC(C)(C)C1` [Compound 23, 4-fluoro-N-methyl-6-(2-methyl-2H-indazol-5-yl)-N-(2,2,6,6-tetramethylpiperidin-4-yl)-1,3-benzothiazol-2-amine] had a half-maximal inhibitory concentration (IC50) of no more than 100 nM. For `Cn1cc2cc(-c3ccc4nc(C5CCNCC5)sc4c3)ccc2n1` [Compound 2, 6-(2-methyl-2H-indazol-5-yl)-2-(piperidin-4-yl)-1,3-benzothiazole], the concentration for half-maximal inhibition (IC50) lay within 100 to 500 nM.

`Cc1cn2cc(-c3ncc4nc(N(C)C5C[C@H]6CCC[C@@H](C5)N6)sc4n3)cc(F)c2n1` (stereo partly drawn) [Compound 257, N-[(1R,5S)-9-azabicyclo[3.3.1]non-3-yl]-5-(8-fluoro-2-methylimidazo[1,2-a]pyridin-6-yl)-N-methyl[1,3]thiazolo[5,4-d]pyrimidin-2-amine] came in with a 50% inhibitory concentration (IC50) of no more than 100 nM. Next, `Cc1cc(-c2ccc3nc(N(C)C4CCNC(C)(C)C4)sc3c2)cc2cn(C)nc12` (stereo not drawn) [Compound 146, 6-(2,7-dimethyl-2H-indazol-5-yl)-N-(2,2-dimethylpiperidin-4-yl)-N-methyl-1,3-benzothiazol-2-amine]: 100 to 500 nM; `Cc1cn2cc(-c3ncc4nc(N(C)C5CC(C)(C)NC(C)(C)C5)sc4n3)cc(F)c2n1` [Compound 171, 5-(8-fluoro-2-methylimidazo[1,2-a]pyridin-6-yl)-N-methyl-N-(2,2,6,6-tetramethylpiperidin-4-yl)[1,3]thiazolo[5,4-d]pyrimidin-2-amine]: no more than 100 nM; `CN1CCC(c2ccc3nc(-c4ccc5nn(C)cc5c4)sc3c2)CC1` [Compound 10, 2-(2-methyl-2H-indazol-5-yl)-6-(1-methylpiperidin-4-yl)-1,3-benzothiazole]: 1000 to 3000 nM. As for `Cc1cn2nc(-c3cnc4nc(N(C)C5CC(C)(C)NC(C)(C)C5)sc4n3)ccc2n1` [Compound 141, N-methyl-6-(2-methylimidazo[1,2-b]pyridazin-6-yl)-N-(2,2,6,6-tetramethylpiperidin-4-yl)[1,3]thiazolo[4,5-b]pyrazin-2-amine], the IC50 was no more than 100 nM.

As to `Cn1cc2cc(-c3cc(F)c4nc(OC5CCNCC5)sc4c3)cc(F)c2n1` [Compound 307, 4-fluoro-6-(7-fluoro-2-methyl-2H-indazol-5-yl)-2-[(piperidin-4-yl)oxy]-1,3-benzothiazole], the IC50 is no more than 100 nM. Compound `Cc1cn2cc(-c3ncc4nc(N(C)C5CC(C)(C)NC(C)(C)C5)sc4n3)cc(C)c2n1` [Compound 183, 5-(2,8-dimethylimidazo[1,2-a]pyridin-6-yl)-N-methyl-N-(2,2,6,6-tetramethylpiperidin-4-yl)[1,3]thiazolo[5,4-d]pyrimidin-2-amine] came in with an IC50 of no more than 100 nM.

In the case of `CN1CC[C@@H]2CN(c3nc4nnc(-c5ccc(-c6cn[nH]c6)cc5O)cc4s3)[C@@H]2C1` [Compound 388, 2-{6-[(1S,6R)-3-methyl-3,8-diazabicyclo[4.2.0]octan-8-yl][1,3]thiazolo[4,5-c]pyridazin-3-yl}-5-(1H-pyrazol-4-yl)phenol], the IC50 lay within 100 to 500 nM.

The compound `CN(c1nc2ccc(-c3ccc4nn(C)cc4c3)nc2s1)C1CC(C)(C)NC(C)(C)C1` [Compound 25, N-methyl-5-(2-methyl-2H-indazol-5-yl)-N-(2,2,6,6-tetramethylpiperidin-4-yl)[1,3]thiazolo[5,4-b]pyridin-2-amine] came in with an IC50 of 100 to 500 nM. In the case of `CN(c1nc2cnc(-c3cc(F)c4nn(C)cc4c3)cc2s1)C1CC2CCCC(C1)N2` (stereo not drawn) [Compound 253, N-(9-azabicyclo[3.3.1]non-3-yl)-6-(7-fluoro-2-methyl-2H-indazol-5-yl)-N-methyl[1,3]thiazolo[4,5-c]pyridin-2-amine] it was no more than 100 nM; in that of `Cc1cn2cc(-c3cc4sc(N(C)C5CC(C)(C)NC(C)(C)C5)nc4nn3)cc(F)c2n1` [Compound 157, 3-(8-fluoro-2-methylimidazo[1,2-a]pyridin-6-yl)-N-methyl-N-(2,2,6,6-tetramethylpiperidin-4-yl)[1,3]thiazolo[4,5-c]pyridazin-6-amine], no more than 100 nM; in that of `CN(c1nc2ccc(-c3cc(F)c4nn(C)cc4c3)nc2s1)C1CC2CCCC(C1)N2` (stereo not drawn) [Compound 295, N-(9-azabicyclo[3.3.1]nonan-3-yl)-5-(7-fluoro-2-methyl-2H-indazol-5-yl)-N-methyl[1,3]thiazolo[5,4-b]pyridin-2-amine], 100 to 500 nM. In the case of `COc1cc(-c2cc(C)c3nn(C)cc3c2)cc2sc(C3CCNCC3)nc12` [Compound 99, 6-(2,7-dimethyl-2H-indazol-5-yl)-4-methoxy-2-(piperidin-4-yl)-1,3-benzothiazole] it was 1000 to 3000 nM; in that of `Cc1cn2cc(-c3ccc4nc(C5CCNCC5)sc4c3)cnc2n1` [Compound 156, 2-methyl-6-[2-(piperidin-4-yl)-1,3-benzothiazol-6-yl]imidazo[1,2-a]pyrimidine], 1000 to 3000 nM.
